What was measured:
Type in all cases: cell-based
[1] = tested on: human bone marrow-derived mesenchymal stem cells; assay: Induction of differentiation to cartilaginous cells in three-dimensional culture (safranin O area); conditions: for activity to induce differentiation to cartilaginous cells (in words): summary of Tables 4 to 11; for Differentiated cartilaginous cell area ratio: control = 1
Experimental: In accordance with Tissue Engineering, (US), 2010, 16 (1), p 81-91. DOI: 10.1089=ten.tec.2008.0693, mesenchymal stem cells were isolated from human normal bone marrow in a dedicated culture medium, and then the cells were grown. The grown cells were recovered, added with an equivalent amount of a cell freezing damage protection liquid CP-1 (KYOKUTO PHARMACEUTICAL INDUSTRIAL CO., LTD), and cryopreserved.
It is known that cartilaginous cells dedifferentiate in two-dimensional culture. As a culture system of cartilaginous cells closer to nature, a technique called three-dimensional culture is adopted. The thawed and grown human bone marrow-derived mesenchymal stem cells were dispensed into 15 mL tubes (made of TPP) by 2.5×10^5 cells, and centrifuged at 1000 rpm for 3 minutes at room temperature. The supernatant was removed and replaced with 0.5 mL of a culture medium to induce differentiation to cartilaginous cells in accordance with Document A. At the same time, as test substances, the garcinia extract, HCA·Ca, and/or the component (B) (components (B1) to (B4)) were added at the concentration shown in Tables 4 to 11. After cultured for 21 days, the cells were fixed in a 4% paraformaldehyde·phosphate buffer for 12 hours, dehydrated in 70% ethanol, and then embedded in paraffin, and then specimens were prepared. In the prepared specimen, the acidic polysaccharides as a cartilage matrix was stained with safranin O, and then the morphology of differentiated cartilaginous cells was observed using an optical microscope (magnification: 10 times). Furthermore, regarding the area showing a red color by safranin O staining, the relative area (differentiated cartilaginous cell area ratio) was calculated using an image analysis software Image J such that the control (Comparative Example 1) had the area of 1.
Except that the component (component (B4)) shown in Table 12 (a) and Table 12 (b) was used as the component (B), and the addition amount of the component (A) and the component (B) (component (B4)) was as shown in Table 12 (a) and Table 12 (b), the same procedure as in Test example 2 was carried out to calculate the differentiated cartilaginous cell area ratio and measure the amount of GAG. The results of the differentiated cartilaginous cell area ratio are shown in Table 12 (a) and Table 12 (b), and the measurement results of the amount of GAG are shown in FIG. 5.

[2] = tested on: human bone marrow-derived mesenchymal stem cells; assay: Cartilage matrix production activity (amount of GAG in pellets); conditions: FIGS. 1 to 4; pellets after 21 days three-dimensional culture, papain digestion
Experimental: LLC is solubilized in 100 mM phosphate buffer pH 7.4, 5 mM L-cysteine hydrochloride monohydrate, and 10 mM EDTA), and then the amount of GAG (glycosaminoglycan) was measured using a GAG quantification kit (manufactured by Blyscan). The larger the amount of GAG, the larger the amount of cartilage matrix produced. […] The results of the differentiated cartilaginous cell area ratio are shown in Table 12 (a) and Table 12 (b), and the measurement results of the amount of GAG are shown in FIG. 5.

[3] = tested on: Human iPS cell-derived mesenchymal stem cells; assay: Differentiation to cartilaginous cells and cartilage matrix production in two-dimensional culture (Alcian blue); conditions: Table 2a: garcinia extract or glucosamine (B4) alone; about 10 days culture; Alcian blue OD 620 nm; control = 1
From the text: In accordance with PLOS ONE, (US), 2014, 9 (12), e112291. DOI: 10.1371/journal.pone.0112291 (hereinafter, described as “Document A”), mesenchymal stem cells were induced from human normal iPS cells via neural crest cells, added with an equivalent amount of a cell freezing damage protection liquid CP-1 (manufactured by KYOKUTO PHARMACEUTICAL INDUSTRIAL CO., LTD), and cryopreserved.
Human iPS cell-derived mesenchymal stem cells were thawed and grown, and seeded in a 96 well plate (manufactured by Corning) in 1×10^5 cells/well. After 24 hours, the culture supernatant was removed, and replaced with a culture medium to induce differentiation to cartilaginous cells in accordance with Document A. To the culture medium to induce differentiation to cartilaginous cells, the garcinia extract and/or the component (B) (components (B1) to (B4)) as test substances were added so that the final concentration was the concentration shown in Tables 1 to 3. No test substance was added to the control group. The cells were cultured for about 10 days, and then fixed with a 4% paraformaldehyde·phosphate buffer (manufactured by FUJIFILM Wako Pure Chemical Corporation). After fixed, the cells were stained with an Alcian blue solution (manufactured by MUTO PURE CHEMICALS CO., LTD.) for 1 hour, and the dye was eluted using a 6 M guanidine hydrochloride solution (manufactured by Tokyo Chemical Industry Co., Ltd.). The eluate was transferred to a 96 well plate, and the OD value of each well at 620 nm was measured with a microplate reader to measure the amount of matrix produced by differentiation-induced cartilaginous cells.

[4] = Table 7: HCA·Ca and/or glucosamine (B4), 21 days, safranin O red area
[5] = Table 6: garcinia extract and/or glucosamine (B4), 21 days, safranin O red area
[6] = Table 12a, Test Example 3: HCA·Ca 25 μM or constituent sugar (B4) 2.5 μM alone

Molecule | Ratio of cartilage matrix production [3] | Differentiated cartilaginous cell area ratio [1, 6] | further results
O=C([O-])C[C@@](O)(C(=O)[O-])[C@H](O)C(=O)[O-].O=C([O-])C[C@@](O)(C(=O)[O-])[C@H](O)C(=O)[O-].[Ca+2].[Ca+2].[Ca+2] [calcium hydroxycitrate, (−) Hydroxycitric acid-3 calcium] | – | – | activity to induce differentiation to cartilaginous cells (in words) [1]: exhibits an activity to induce differentiation to cartilaginous cells, the degree of which is limited; cartilage matrix production activity (amount of GAG, in words) [2]: exhibits a cartilage matrix production activity, the degree of which is limited
N[C@H]1C(O)O[C@H](CO)[C@@H](O)[C@@H]1O (stereo partly shown) [compound 6, Glucosamine] | 1.00 | – | –
N[C@H]1C(O)O[C@H](CO)[C@@H](O)[C@@H]1O (stereo partly shown) [compound 7, Glucosamine] | 1.01 | – | –
N[C@H]1C(O)O[C@H](CO)[C@@H](O)[C@@H]1O (stereo partly shown) [compound 8, Glucosamine] | 1.01 | – | –
N[C@H]1C(O)O[C@H](CO)[C@@H](O)[C@@H]1O (stereo partly shown) [compound 9, Glucosamine] | 1.01 | – | –
N[C@H]1C(O)O[C@H](CO)[C@@H](O)[C@@H]1O (stereo partly shown) [compound 10, Glucosamine] | 1.01 | – | –
N[C@H]1C(O)O[C@H](CO)[C@@H](O)[C@@H]1O (stereo partly shown) [compound 11, Glucosamine] | 1.01 | – | –
N[C@H]1C(O)O[C@H](CO)[C@@H](O)[C@@H]1O (stereo partly shown) [compound 12, Glucosamine] | 1.02 | – | –
N[C@H]1C(O)O[C@H](CO)[C@@H](O)[C@@H]1O (stereo partly shown) [compound 13, Glucosamine] | 1.00 | – | –
N[C@H]1C(O)O[C@H](CO)[C@@H](O)[C@@H]1O (stereo partly shown) [compound 14, Glucosamine] | 1.00 | – | –
O=C([O-])C[C@@](O)(C(=O)[O-])[C@H](O)C(=O)[O-].O=C([O-])C[C@@](O)(C(=O)[O-])[C@H](O)C(=O)[O-].[Ca+2].[Ca+2].[Ca+2] [compound 32, (−) Hydroxycitric acid-3 calcium] | – | – | Differentiated cartilaginous cell area ratio ([1]; Table 5: HCA·Ca and/or chondroitin sulfate (B1), 21 days, safranin O red area): 1.7; Differentiated cartilaginous cell area ratio [1, 4]: 1.7; Differentiated cartilaginous cell area ratio ([1]; Table 9: HCA·Ca and/or hyaluronic acid (B3), 21 days, safranin O red area): 3.5; Differentiated cartilaginous cell area ratio ([1]; Table 11: HCA·Ca and/or proteoglycan (B2), 21 days, safranin O red area): 1.5
N[C@H]1C(O)O[C@H](CO)[C@@H](O)[C@@H]1O (stereo partly shown) [compound 33, Glucosamine] | – | – | Differentiated cartilaginous cell area ratio [1, 5]: 0.1; Differentiated cartilaginous cell area ratio [1, 4]: 0.1
N[C@H]1C(O)O[C@H](CO)[C@@H](O)[C@@H]1O (stereo partly shown) [compound 34, Glucosamine] | – | – | Differentiated cartilaginous cell area ratio [1, 5]: 0.2; Differentiated cartilaginous cell area ratio [1, 4]: 0.2
O=C([O-])C[C@@](O)(C(=O)[O-])[C@H](O)C(=O)[O-].O=C([O-])C[C@@](O)(C(=O)[O-])[C@H](O)C(=O)[O-].[Ca+2].[Ca+2].[Ca+2] [compound 39, (−) Hydroxycitric acid-3 calcium] | – | 1.8 | –
Cl.N[C@H]1C(O)O[C@H](CO)[C@@H](O)[C@@H]1O (stereo partly drawn) [compound 40, D-(+)-glucosamine hydrochloride] | – | 0.6 | –
CC(=O)N[C@H]1C(O)O[C@H](CO)[C@@H](O)[C@@H]1O (stereo partly drawn) [compound 41, N-acetyl-D-glucosamine] | – | 1.8 | –
CC(=O)N[C@H]1C(O)O[C@H](COS(=O)(=O)[O-])[C@@H](O)[C@@H]1O.[Na+] (stereo partly drawn) [compound 42, Sodium N-acetyl-D-glucosamine 6-sulfate] | – | 2 | –
O=C[C@H](O)[C@@H](O)[C@H](O)[C@H](O)C(=O)O [compound 43, D-glucuronic acid] | – | 0.7 | –
Cl.N[C@H]1C(O)O[C@H](CO)[C@H](O)[C@@H]1O (stereo partly drawn) [compound 44, D-(+)-galactosamine hydrochloride] | – | 0.7 | –
CC(=O)N[C@H]1C(O)O[C@H](CO)[C@H](O)[C@@H]1O (stereo partly drawn) [compound 45, N-acetyl-D-galactosamine] | – | 1 | –
CC(=O)N[C@H]1C(O)O[C@H](COS(=O)(=O)[O-])[C@H](O)[C@@H]1O.[Na+] (stereo partly drawn) [compound 46, Sodium N-acetyl-D-galactosamine 6-sulfate] | – | 1.4 | –
N[C@H]1C(O)O[C@H](CO)[C@@H](O)[C@@H]1O (stereo partly shown) [glucosamine, Glucosamine] | – | – | activity to induce differentiation to cartilaginous cells (in words) [1]: reduce the activity to induce differentiation to cartilaginous cells; cartilage matrix production activity (amount of GAG, in words) [2]: reduce the cartilage matrix production activity
Sodium hyaluronate [hyaluronic acid] | – | – | activity to induce differentiation to cartilaginous cells (in words) [1]: almost no activity to induce differentiation to cartilaginous cells; cartilage matrix production activity (amount of GAG, in words) [2]: almost no activity to induce differentiation to cartilaginous cells
